Assay results published in EPA's CvTdb concentration-time database.

Experiments:
Mouse [1] = assay: concentration in plasma after dosing; settings: 2 h; dosed: 2-Hydroxy-4-methoxybenzophenone; 50 mg/kg; iv; Female; B6C3F1
Mouse [2] = assay: concentration in plasma after dosing; settings: 3 h; dosed: 2-Hydroxy-4-methoxybenzophenone; 50 mg/kg; iv; Female; B6C3F1
Rat [3] = assay: concentration in plasma after dosing; settings: dosed: 2-Hydroxy-4-methoxybenzophenone, 250 mg/kg, oral, Male, F344
Rat [4] = assay: concentration in plasma after dosing; settings: 6 h; dosed: 2-Hydroxy-4-methoxybenzophenone; 500 mg/kg; oral; Male; F344
Mouse [5] = assay: concentration in plasma after dosing; settings: 10 min; dosed: 2-Hydroxy-4-methoxybenzophenone; 50 mg/kg; iv; Female; B6C3F1
Mouse [6] = assay: concentration in plasma after dosing; settings: 10 min; dosed: 2-Hydroxy-4-methoxybenzophenone; 500 mg/kg; oral; Female; B6C3F1
Mouse [7] = assay: concentration in plasma after dosing; settings: 3 h; dosed: 2-Hydroxy-4-methoxybenzophenone; 50 mg/kg; iv; Male; B6C3F1
Rat [8] = assay: concentration in plasma after dosing; settings: dosed: 2-Hydroxy-4-methoxybenzophenone, 8 mg/kg, iv, Female, F344
Rat [9] = assay: concentration in plasma after dosing; settings: 5 min; dosed: Nitrite; 20 mg/kg; iv; Male; F344
Rat [10] = assay: concentration in plasma after dosing; settings: 5 min; dosed: Nitrite; 80 mg/kg; oral; Female; F344
Rat [11] = assay: concentration in plasma after dosing; settings: dosed: Nitrite, 40 mg/kg, oral, Female, F344
Rat [12] = assay: concentration in plasma after dosing; settings: 0.5 h; dosed: Nitrite; 80 mg/kg; oral; Female; F344
Rat [13] = assay: concentration in plasma after dosing; settings: 2 min; dosed: Nitrite; 40 mg/kg; oral; Female; F344
Rat [14] = assay: concentration in plasma after dosing; settings: 5 min; dosed: Nitrite; 40 mg/kg; oral; Female; Harlan Sprague-Dawley
Rat [15] = assay: concentration in plasma after dosing; settings: dosed: Nitrite, 40 mg/kg, oral, Female, F344; remark: listed apart in the source
Rat [16] = assay: concentration in plasma after dosing; settings: dosed: Nitrite, 20 mg/kg, iv, Male, F344
Rat [17] = assay: concentration in plasma after dosing; settings: dosed: Nitrite, 20 mg/kg, iv, Male, F344; remark: listed apart in the source
Rat [18] = assay: concentration in liver after dosing; settings: 0.5 h; dosed: Fluorotelomer alcohol 8+2; 80 mg/kg; oral; Female; Harlan Sprague Dawley
Rat [19] = assay: concentration in liver after dosing; settings: 12 h; dosed: Fluorotelomer alcohol 8+2; 80 mg/kg; oral; Female; Harlan Sprague Dawley
Rat [20] = assay: concentration in brain after dosing; settings: 3 h; dosed: Perfluorooctanoic acid; 80 mg/kg; oral; Female; Harlan Sprague Dawley
Rat [21] = assay: concentration in liver after dosing; settings: 12 h; dosed: Perfluorooctanoic acid; 12 mg/kg; oral; Male; Harlan Sprague Dawley
Rat [22] = assay: concentration in brain after dosing; settings: 3 h; dosed: Perfluorooctanoic acid; 12 mg/kg; oral; Male; Harlan Sprague Dawley
Rat [23] = assay: concentration in liver after dosing; settings: 1 h; dosed: Fluorotelomer alcohol 8+2; 80 mg/kg; oral; Female; Harlan Sprague Dawley
Rat [24] = assay: concentration in kidney after dosing; settings: 24 h; dosed: Perfluorooctanoic acid; 12 mg/kg; oral; Male; Harlan Sprague Dawley
Rat [25] = assay: concentration in kidney after dosing; settings: 1200 h; dosed: Perfluorooctanoic acid; 12 mg/kg; oral; Male; Harlan Sprague Dawley
Rat [26] = assay: concentration in kidney after dosing; settings: 3 h; dosed: Perfluorooctanoic acid; 12 mg/kg; oral; Male; Harlan Sprague Dawley
Rat [27] = assay: concentration in plasma after dosing; settings: dosed: Fluorotelomer alcohol 8+2, 12 mg/kg, oral, Male, Harlan Sprague Dawley
Rat [28] = assay: concentration in plasma after dosing; settings: dosed: 678-39-7, 40 mg/kg, iv, Male, F344
Rat [29] = assay: concentration in kidney after dosing; settings: 24 h; dosed: Perfluorooctanoic acid; 12 mg/kg; oral; Male; Harlan Sprague Dawley; remark: listed apart in the source
Rat [30] = assay: concentration in plasma after dosing; settings: dosed: 678-39-7, 40 mg/kg, iv, Male, F344; remark: listed apart in the source
Rat [31] = assay: concentration in kidney after dosing; settings: 1 h; dosed: Fluorotelomer alcohol 8+2; 80 mg/kg; oral; Female; Harlan Sprague Dawley
Rat [32] = assay: concentration in kidney after dosing; settings: 1200 h; dosed: Perfluorooctanoic acid; 12 mg/kg; oral; Male; Harlan Sprague Dawley; remark: listed apart in the source
Rat [33] = assay: concentration in liver after dosing; settings: 1 h; dosed: Potassium Perfluorobutane Sulfonate; 20 mg/kg; oral; Female; Harlan Sprague Dawley
Rat [34] = assay: concentration in liver after dosing; settings: 6 h; dosed: Potassium Perfluorobutane Sulfonate; 20 mg/kg; oral; Male; Harlan Sprague Dawley
Rat [35] = assay: concentration in liver after dosing; settings: 6 h; dosed: Potassium Perfluorobutane Sulfonate; 20 mg/kg; oral; Female; Harlan Sprague Dawley
Rat [36] = assay: concentration in kidney after dosing; settings: 3 h; dosed: Potassium Perfluorobutane Sulfonate; 20 mg/kg; oral; Male; Harlan Sprague Dawley
Rat [37] = assay: concentration in plasma after dosing; settings: dosed: Potassium Perfluorobutane Sulfonate, 4 mg/kg, oral, Male, Harlan Sprague Dawley
Rat [38] = assay: concentration in plasma after dosing; settings: 1.5 h; dosed: Potassium Perfluorobutane Sulfonate; 4 mg/kg; oral; Male; Harlan Sprague Dawley
Rat [39] = assay: concentration in plasma after dosing; settings: 0.25 h; dosed: Potassium Perfluorobutane Sulfonate; 4 mg/kg; iv; Male; F344

COc1ccc(C(=O)c2ccccc2)c(O)c1 [2-Hydroxy-4-methoxybenzophenone]
Settings	concentration in plasma [ng/mL]
Mouse [1]	311
Mouse [2]	149
Mouse [5]	11500
Mouse [6]	687
Mouse [7]	218
Rat [4]	189

concentration in plasma [ng/mL]
Settings	Rat [3]	Rat [8]
0.25 h	55.5	120
4 h	84	75.6

O=N[O-] [Nitrite]
Settings	concentration in plasma [ng/mL]
Rat [9]	8200
Rat [10]	8200
Rat [12]	8900
Rat [13]	7300
Rat [14]	4100

Settings	concentration in plasma [ng/mL]
Rat [11], 1 h	4300
Rat [11], 2 h	1800
Rat [15], 1 h	8300
Rat [15], 2 h	3600
Rat [16], 0.75 h	2300
Rat [16], 2 min	21300
Rat [17], 1.25 h	1700
Rat [17], 10 min	4800

O=C(O)C(F)(F)C(F)(F)C(F)(F)C(F)(F)C(F)(F)C(F)(F)C(F)(F)F [Perfluorooctanoic acid]
Settings	concentration in brain [ng/g]	concentration in kidney [ng/g]	concentration in liver [ng/g]
Rat [18]	–	–	579
Rat [19]	–	–	498
Rat [20]	3490	–	–
Rat [21]	–	–	56700
Rat [22]	913	–	–
Rat [23]	–	–	601
Rat [24]	–	29700	–
Rat [25]	–	1110	–
Rat [26]	–	36800	–
Rat [29]	–	28700	–
Rat [31]	–	568	–
Rat [32]	–	695	–

concentration in plasma [ng/mL]
Settings	Rat [27]	Rat [28]	Rat [30]
0.25 h	204	276000	264000
6 h	438	77700	108000
48 h	–	31.9	–

O=S(=O)([O-])C(F)(F)C(F)(F)C(F)(F)C(F)(F)F.[K+] [Potassium Perfluorobutane Sulfonate]
Settings	concentration in kidney [ng/g]	concentration in liver [ng/g]	concentration in plasma [ng/mL]
Rat [33]	–	27800	–
Rat [34]	–	43800	–
Rat [35]	–	2620	–
Rat [36]	27100	–	–
Rat [38]	–	–	12600
Rat [39]	–	–	17900

Rat [37]
Settings	concentration in plasma [ng/mL]
3 h	11700
5 min	398
